{"source": "patent US20130287688A1", "about": "“NOVEL COMPOSITIONS AND USES OF ANTI-HYPERTENSION AGENTS FOR CANCER THERAPY” (XTUIT PHARMACEUTICALS, INC., priority 2010, published 2013)", "key": {"[1]": {"test_system": "tumors", "assay": "Solid stress after a panel of ARBs", "format": "in vivo", "conditions": "40 mg/kg losartan, 3.2 mg/kg candesartan, 32 mg/kg valsartan", "procedure": "Solid stress levels in tumors after angiotensin inhibition using the ARBs losartan, candesartan, and valsartan are shown. Doses were chosen based on their relative doses in patients for hypertension indications (40 mg/kg losartan, 3.2 mg/kg candesartan, 32 mg/kg valsartan). […] Animal numbers n=6-7. Statistical tests were corrected for multiple comparisons using the Holm-Bonferroni method.\nThe mechanism responsible for the increase in tumor vessel perfusion by losartan was investigated. Desmoplasia, high stromal cell and matrix density, is a major contributor to the solid stress accumulation that compresses vessels (Stylianopoulos T, et al., Growth-induced mechanical stress in murine and human tumors: causes, consequences and remedies. under review. 2012). Since angiotensin inhibitors reduce matrix production in tumors (Diop-Frimpong B, et al., Proc Natl Acad Sci USA. 2011; 108(7): 2909-14), it was hypothesized that they decompress vessels and increase perfusion by decreasing solid stress. Collagen levels were used as a metric of matrix production as described in Diop-Frimpong et al., Proc Nall Acad Sci USA. […] Moreover, losartan decreased collagen I concentration, measured based on staining intensity, in E0771 and AK4.4 tumors (FIGS. 24B-24C). Of note, dense collagen seemed to colocalize with low-perfusion areas (FIG. 24C). Next, solid stress in these tumors was measured using recently established technique described in Stylianopoulos T, et al., Growth-induced mechanical stress in murine and human tumors: causes, consequences and remedies. under review. 2012. […]\nSolid stress: Solid stress was measured using the tumor opening technique as described previously (Stylianopoulos T, et al., Growth-induced mechanical stress in murine and human tumors: causes, consequences and remedies. under review. 2012). […] Subsequently, each tumor was excised, washed with Hanks' Balanced Salt Solution (HBSS) and its three dimensions were measured. […] Afterwards, the opening resulting from the cut was measured at the middle of the cut at the surface of the tumor. […]"}, "[2]": {"test_system": "E0771 breast tumors", "assay": "Breast tumor growth and survival studies", "format": "in vivo, mice", "procedure": "(§1) Breast tumor growth and survival studies: Mice bearing orthotopic E0771 or 4T1 breast tumors were split into treatment groups, time-matched for time after implantation and size-matched for tumor volume at this time (110-111 mm^3 in E0771, in 4T1). […] The primary tumors were then measured every 2 days, beginning on day 0, using calipers. Tumor growth was quantified using the time for each to reach double its initial volume Animal survival was quantified based on time of death after initiation of treatment or time to reach excessive tumor burden (>1000 mm^3)."}, "[3]": {"test_system": "4T1 breast tumors", "assay": "Breast tumor growth and survival studies", "format": "in vivo, mice", "source_text": "In FIG. 35B, the quantification of tumor growth rates, based on the time to reach double the initial volume, is shown.\nIn FIG. 35C, the animal survival following the initiation of treatment is shown. […] Statistical tests were corrected for multiple comparisons using the Holm-Bonferroni method.\nas §1"}, "[4]": {"test_system": "E0771 breast tumors", "assay": "Tumor matrix level histology (collagen I)", "set-up": "species or system SCID mouse", "conditions": "mouse, in vivo", "procedure": "Collagen levels were used as a metric of matrix production as described in Diop-Frimpong et al., Proc Nall Acad Sci USA. […] Next, solid stress in these tumors was measured using recently established technique described in Stylianopoulos T, et al., Growth-induced mechanical stress in murine and human tumors: causes, consequences and remedies. under review.\nVessel perfusion, matrix level, and hypoxia histology: For breast tumors, mice bearing orthotopic E0771 were split into treatment groups, time-matched for time after implantation and size-matched for tumor volume at this time (−100 mm^3). For pancreatic tumors, mice bearing orthotopic AK4.4 were split into treatment groups, size-matched for tumor volume (˜22 mm^3), 6 days after implantation. […] On the day of the last treatment, mice were slowly (−2 min) injected with 100 μL of 1 mg/mL biotinylated lectin (Vector Labs), administered retro-orbitally 5 min prior to tumor removal. For hypoxia studies, the mice were also injected with 60 mg/kg of 10 mg/mL pimonidazole 1 hr prior to tumor removal. […] For matrix staining, collagen I was detected using the LF-67 antibody provided by Dr. Larry Fisher (National Institute of Dental Research, Bethesda, Md.).\nHistological image analysis: Eight random images (four interior, four periphery) at 20× magnification were taken from each slide using a confocal microscope (Olympus). […] For perfusion, the number of vessels counted by this program with colocalization of lectin and CD31 staining was divided by the number of vessels counted with CD31 staining. For vessel metrics, including diameter and density, the program determined the average size of all counted vessels and their length, as well as the count per area Images of collagen I stained sections were analyzed based on the area fraction of positive staining and on the average staining intensity (concentration) in each image. […] Images of hypoxia staining with pimonidazole were similarly analyzed for the area fraction of positive staining, counting the fraction of pixels above a threshold based on background intensity."}, "[5]": {"test_system": "E0771 tumors", "assay": "Solid stress (tumor opening technique)", "set-up": "species or system mice", "conditions": "mouse, in vivo", "description": "Solid stress was assessed using an ex vivo technique involving the measurement of the extent of tumor tissue relaxation (tumor opening relative to tumor diameter) following a stress-releasing incision, with larger openings indicating higher stress.\nWhen the tumors reached a size of −1 cm in diameter, the mice were anesthetized. Subsequently, each tumor was excised, washed with Hanks' Balanced Salt Solution (HBSS) and its three dimensions were measured. Each tumor was cut along its longest axis, to a depth of 80% of its shortest dimension, using a scalpel. The tumors were allowed to relax for 10 minutes in HBSS to diminish any transient, poro-elastic responses. Afterwards, the opening resulting from the cut was measured at the middle of the cut at the surface of the tumor. Solid stress is proportional to the size of the opening relative to the size of the dimension perpendicular to the cut."}, "[6]": {"conditions": "agent given alone (losartan 40 mg/kg daily or doxorubicin 2 mg/kg every three days)"}}}
{"smiles": "CCOc1nc2cccc(C(=O)O)c2n1Cc1ccc(-c2ccccc2-c2nnn[nH]2)cc1", "note": "[candesartan]", "values": [{"measurement": "solid stress", "setting": "[1]", "result": "reduce solid stress to a similar degree"}]}
{"smiles": "COc1cccc2c1C(=O)c1c(O)c3c(c(O)c1C2=O)C[C@@](O)(C(=O)CO)C[C@@H]3O[C@H]1C[C@H](N)[C@H](O)[C@H](C)O1", "note": "[doxorubicin]", "values": [{"measurement": "tumor growth rate", "setting": "[2]; [6]", "result": "no significant effect"}, {"measurement": "median survival", "setting": "[2]; doxorubicin alone", "result": 16, "unit": "days"}, {"measurement": "tumor growth rate", "setting": "[3]; [6]", "result": "no significant effect"}, {"measurement": "survival", "setting": "[3]; monotherapy", "result": "improves survival"}]}
{"smiles": "NCCCC[C@H](N[C@@H](CCc1ccccc1)C(=O)O)C(=O)N1CCC[C@H]1C(=O)O", "note": "[lisinopril]", "values": [{"measurement": "matrix production, collagen I area fraction", "setting": "[4]", "result": "decreases"}, {"measurement": "solid stress", "setting": "[5]", "result": "reduces solid stress"}]}
{"smiles": "CCCCC(=O)N(Cc1ccc(-c2ccccc2-c2nnn[nH]2)cc1)[C@H](C(=O)O)C(C)C", "note": "[valsartan]", "values": [{"measurement": "solid stress", "setting": "[1]", "result": "reduce solid stress to a similar degree"}]}
